Assay results published in patent US20090069301A1, “Acridine and Quinoline Derivatives as Sirtuin Modulators” (Sirtris Pharmaceuticals, Inc., priority 2005, published 2009).
pEC50, pIC50: −log10 of the molar value.

Target: T1, SIRT1 (Homo sapiens, UniProt Q96EB6)
T1 sequence (Q96EB6 1-747): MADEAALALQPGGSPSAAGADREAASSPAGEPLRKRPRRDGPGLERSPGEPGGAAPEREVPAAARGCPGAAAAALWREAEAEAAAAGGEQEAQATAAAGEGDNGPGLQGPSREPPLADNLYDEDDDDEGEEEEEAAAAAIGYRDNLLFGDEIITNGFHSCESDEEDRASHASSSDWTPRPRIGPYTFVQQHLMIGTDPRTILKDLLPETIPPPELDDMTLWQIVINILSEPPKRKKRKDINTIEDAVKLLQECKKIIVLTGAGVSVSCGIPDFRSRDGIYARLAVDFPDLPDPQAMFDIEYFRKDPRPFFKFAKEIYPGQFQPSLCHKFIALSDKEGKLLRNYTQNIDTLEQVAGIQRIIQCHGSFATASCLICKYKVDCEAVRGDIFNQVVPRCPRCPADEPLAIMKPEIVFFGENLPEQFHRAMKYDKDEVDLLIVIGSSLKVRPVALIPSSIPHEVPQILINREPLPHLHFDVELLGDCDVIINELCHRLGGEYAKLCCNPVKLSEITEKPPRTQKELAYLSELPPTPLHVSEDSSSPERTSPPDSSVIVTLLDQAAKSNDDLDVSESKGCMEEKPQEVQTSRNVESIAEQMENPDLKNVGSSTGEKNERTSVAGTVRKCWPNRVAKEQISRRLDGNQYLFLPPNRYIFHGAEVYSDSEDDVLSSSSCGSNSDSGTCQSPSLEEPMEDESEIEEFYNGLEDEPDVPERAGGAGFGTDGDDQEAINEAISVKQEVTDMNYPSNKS
Test: Fluorescence polarization or mass spectrometry based assay to identify modulators of SIRT1 activity (p53-based peptide deacetylation);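 further: recombinant His-tagged human SIRT1 deacetylating p53-derived acetylated peptide, detected by fluorescence polarization after trypsin cleavage, signal inversely tracking deacetylase activity, compared against activity without test compound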
Type: biochemical
Conditions: for pEC50: activation of SIRT1, Table 4, read-out: ED50 (the source's name); for pIC50: inhibition of SIRT1, Table 5

| SMILES | pEC50 | pIC50 |
| --- | --- | --- |
| Cc1ccc2nc(-c3cccs3)cc(C(=O)NCCN3CCCCC3)c2c1 [Compound 52] | < 3.82 | – |
| CCCOc1cccc(-c2cc(C(=O)NCCN3CCOCC3)c3ccccc3n2)c1 [Compound 4] | < 3.82 | – |
| c1ccc2c(c1)Oc1ccccc1C2n1nnc2ccccc21 [Compound 124] | < 3.82 | – |
| CC(C)c1cc(NCc2c3ccccc3nc3ccccc23)n(-c2ccccc2)n1 [Compound 125] | < 3.82 | – |
| Cc1ccc2nc(-c3cccs3)ccc2c1C(=O)NCCCN1CCCCC1 [Compound 21] | < 3.82 | – |
| Cc1ccc2nc(-c3ccco3)cc(C(=O)N(C)CCN(C)C)c2c1 [Compound 32] | < 3.82 | – |
| COc1cc(C(=O)NNc2cc(-c3ccccc3)nc3ccccc23)cc(OC)c1OC [Compound 24] | < 3.82 | – |
| COc1cc(C(=O)NNc2c3c(nc4ccccc24)CCCC3)cc(OC)c1OC [Compound 120] | > 4.30 | – |
| Cc1ccc2nc(-c3ccco3)cc(C(=O)NCCCCN3CCN(C)CC3)c2c1 [Compound 17] | < 3.82 | – |
| O=C(NNc1cc(-c2ccccc2)nc2ccccc12)c1ccc(Cl)cc1 [Compound 23] | > 4.30 | – |
| Cc1ccc2nc(-c3ccco3)cc(C(=O)NCCCN3CCN(C)CC3)c2c1 [Compound 47] | < 3.82 | – |
| Cc1ccc2nc(-c3ccccc3)cc(C(=O)NCCCN3CCCCC3)c2c1 [Compound 44] | < 3.82 | – |
| O=C(Nc1ccccc1-n1cccc1)c1c2ccccc2nc2ccccc12 [Compound 129] | < 3.82 | – |
| O=C(NNc1c2ccccc2nc2ccccc12)c1ccncc1 [Compound 10] | > 4.30 | – |
| O=C(NNc1cc(-c2ccccc2)nc2ccccc12)c1ccccn1 [Compound 22] | > 4.30 | – |
| Cc1ccc2nc(-c3cccs3)cc(C(=O)NCCN3CCOCC3)c2c1 [Compound 6] | > 4.30 | – |
| Cc1ccc2nc(-c3ccco3)cc(C(=O)N3CCCCC3)c2c1 [Compound 30] | < 3.82 | – |
| O=C(Nc1c2c(nc3ccccc13)CCCC2)c1ccncc1 [Compound 157] | < 3.82 | – |
| Cc1ccc2nc(-c3ccco3)cc(C(=O)NCCN(C)CCN(C)C)c2c1 [Compound 46] | < 3.82 | – |
| Cc1ccc2nc(-c3cccs3)cc(C(=O)N3CCOCC3)c2c1 [Compound 172] | – | < 3.82 |
| CCCCc1ccc(NC(=O)c2c3c(nc4ccccc24)CCCC3)cc1 [Compound 160] | < 3.82 | – |
| Cc1ccc2nc(-c3cccs3)cc(C(=O)NCCCN3CCN(C)CC3)c2c1 [Compound 18] | < 3.82 | – |

Second part, the compound after the results:

| pEC50 | pIC50 | SMILES |
| --- | --- | --- |
| > 4.30 | – | O=C(NCc1ccncc1)c1cc(-c2ccsc2)nc2ccccc12 [Compound 1] |
| – | < 3.82 | Cc1ccc2nc(-c3ccccc3)cc(C(=O)NCCCCCN3CCCCC3)c2c1 [Compound 171] |
| < 3.82 | – | Cc1ccc2nc(-c3cccs3)cc(C(=O)N3CCN(C)CC3)c2c1 [Compound 49] |
| > 4.30 | – | O=C(NNc1c2ccccc2nc2ccccc12)c1cccnc1 [Compound 11] |
| < 3.82 | – | CS(=O)(=O)c1ccc(F)c(NC(=O)c2c3ccccc3nc3ccccc23)c1 [Compound 135] |
| < 3.82 | – | Cc1ccc2nc(-c3ccco3)ccc2c1C(=O)NCCCN1CCCCC1 [Compound 20] |
| < 3.82 | – | Cc1ccc2nc(-c3ccco3)cc(C(=O)N3CCOCC3)c2c1 [Compound 35] |
| < 3.82 | – | COc1ccccc1N1CCN(C(=O)c2c3ccccc3nc3ccccc23)CC1 [Compound 136] |
| < 3.82 | – | COc1cc(NCc2c3ccccc3nc3ccccc23)cc(OC)c1OC [Compound 127] |
| > 4.30 | – | c1ccc(NNc2c3ccccc3nc3ccccc23)nc1 [Compound 121] |
| < 3.82 | – | Cc1ccc2nc(-c3cccs3)cc(C(=O)N(C)CCN(C)C)c2c1 [Compound 51] |
| > 4.30 | – | COc1ccc(C(=O)NNc2cc(-c3ccccc3)nc3ccccc23)cc1OC [Compound 26] |
| > 4.30 | – | COc1cc(-c2nnc(-c3c4ccccc4nc4ccccc34)o2)cc(OC)c1OC [Compound 137] |
| < 3.82 | – | Cc1ccc2nc(-c3ccco3)cc(C(=O)NCCN3CCCCC3)c2c1 [Compound 34] |
| < 3.82 | – | O=C(Nc1ccc(N2CCCCC2)cc1)c1c2ccccc2nc2ccccc12 [Compound 128] |
| < 3.82 | – | Cc1ccc2nc(-c3cccs3)cc(C(=O)N3CCCN(C)CC3)c2c1 [Compound 50] |
| < 3.82 | – | Cc1ccc2nc(-c3cccs3)cc(C(=O)NCCCN3CCOCC3)c2c1 [Compound 53] |

| pEC50 | pIC50 | SMILES |
| --- | --- | --- |
| < 3.82 | – | CCN(CC)S(=O)(=O)c1ccc(N2CCOCC2)c(NC(=O)c2cc(-c3ccccn3)nc3ccccc23)c1 [Compound 9] |
| < 3.82 | – | COc1cc(NC(=O)c2cc(-c3ccccc3)nc3ccccc23)cc(OC)c1OC [Compound 27] |
| < 3.82 | – | COc1cc(C(=O)NN(C)c2c3ccccc3nc3ccccc23)cc(OC)c1OC [Compound 154] |
| < 3.82 | – | CN(C)c1ccc(C(=O)NNc2cc(-c3ccccc3)nc3ccccc23)cc1 [Compound 25] |
| < 3.82 | – | Cc1ccc2nc(-c3ccco3)cc(C(=O)NCCCN3CCOCC3)c2c1 [Compound 31] |
| < 3.82 | – | Cc1ccc2nc(-c3cccs3)cc(C(=O)N3CCCCC3)c2c1 [Compound 48] |
| > 4.30 | – | CN(NC(=O)c1ccncc1)c1c2ccccc2nc2ccccc12 [Compound 155] |
| < 3.82 | – | Cc1ccc2nc(-c3ccco3)cc(C(=O)N3CCN(C)CC3)c2c1 [Compound 33] |
| > 4.30 | – | CC(C)c1cc(NC(=O)c2c3ccccc3nc3ccccc23)n(-c2ccccc2)n1 [Compound 118] |
| < 3.82 | – | Cc1ccc2nc(-c3ccccc3)cc(C(=O)NCCCN3CCN(C)CC3)c2c1 [Compound 45] |
| < 3.82 | – | O=C(Nc1ccc2c(c1)OCO2)Nc1c2ccccc2nc2ccccc12 [Compound 153] |
| < 3.82 | – | O=C(NNC(=O)c1c2ccccc2nc2ccccc12)c1cc(F)cc(F)c1 [Compound 134] |
| < 3.82 | – | CC(C)c1cc(Nc2c3ccccc3nc3ccccc23)n(-c2ccccc2)n1 [Compound 131] |
| – | < 3.82 | Cc1ccc2nc(-c3ccccc3)cc(C(=O)NCCCCCN3CCOCC3)c2c1 [Compound 170] |
| > 4.30 | – | COc1cc(C(=O)NNc2c3ccccc3nc3ccccc23)cc(OC)c1OC [Compound 3] |
| < 3.82 | – | Cc1ccc(-c2cccc(NC(=O)c3c4ccccc4nc4ccccc34)c2)cc1C [Compound 130] |
| – | < 3.82 | Cc1ccc2nc(-c3ccccc3)cc(C(=O)NCCCN3CCOCC3)c2c1 [Compound 169] |
